Experimental data: US20110207726A1, “Inhibitors of Human Cathepsin L, Cathepsin B, and Cathepsin S” (The Trustees of the University of Pennsylvania, priority 2008, published 2011)
Read-outs that look alike come from different tables or passages of the source.

Experiments:
human cathepsin K = molecular target: T1, human cathepsin K (Homo sapiens, UniProt P43235); assay: Selectivity assay, cathepsin K; assay type: biochemical
T1 construct: purchased Calbiochem 342001
T1 sequence (P43235 115-329): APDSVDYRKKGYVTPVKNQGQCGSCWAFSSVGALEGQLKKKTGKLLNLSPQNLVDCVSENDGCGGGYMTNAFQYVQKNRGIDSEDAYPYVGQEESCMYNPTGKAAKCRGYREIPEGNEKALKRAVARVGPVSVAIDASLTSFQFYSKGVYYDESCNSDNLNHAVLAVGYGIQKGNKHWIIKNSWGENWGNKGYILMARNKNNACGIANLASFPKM
Procedure: Compound No. 1 was assayed for inhibition against papain and cathepsins B, G, K, S, and V. Papain from Carica papaya (Calbiochem 5125, 11 ng/mL), human cathepsin K (Calbiochem 342001, 35 ng/mL), human spleen cathepsin S (Calbiochem 219344, 40 ng/mL), and human cathepsin V (Calbiochem 219467, 39 ng/ml) were assayed using Z-Phe-Arg-AMC substrate at 20 μM, 20 μM, 15 μM, and 1 μM, respectively. Human liver cathepsin B (Calbiochem 219362, 65 ng/mL) was assayed using 15 μM Z-Arg-Arg-AMC substrate (Bachem I-1135). Human neutrophil cathepsin G (Calbiochem 219373, 4.2 μg/mL) was assayed using 15 μM Suc-Ala-Ala-Pro-Phe-AMC substrate (Sigma S9761). All reactions were performed in 20 mM sodium acetate buffer containing 5 mM cysteine and 1 mM EDTA, pH 5.5. Reaction progress was monitored using the Envision microplate reader. IC50 values were measured in triplicate.

human cathepsin L = human cathepsin L (Homo sapiens, UniProt P07711); assay: Preincubation studies, cathepsin L; assay type: biochemical; design: 8.7 ng/mL human liver cathepsin L (Calbiochem 219402); purchased Calbiochem 219402; host or cells: human liver
human cathepsin L, sequence (P07711 114-288 limits assumed): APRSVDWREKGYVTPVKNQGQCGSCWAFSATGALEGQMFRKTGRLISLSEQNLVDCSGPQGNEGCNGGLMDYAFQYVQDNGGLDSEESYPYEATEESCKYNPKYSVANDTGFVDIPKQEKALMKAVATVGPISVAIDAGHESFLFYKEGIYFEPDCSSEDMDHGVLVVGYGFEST
human cathepsin L, sequence (P07711 292-333 limits assumed): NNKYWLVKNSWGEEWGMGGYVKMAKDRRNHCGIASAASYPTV
Procedure: To establish the time-dependent mechanism of inhibition, enzyme and inhibitor were preincubated for various time points in a 96-well microplate prior to the addition of substrate to initiate the enzymatic reaction. 47.5 μL of cathepsin L (18.3 ng/mL) and 47.5 μL of Compound No. 1 at various concentrations in assay buffer were incubated up to 4 hours. Five μL of Z-Phe-Arg-AMC substrate were then added and the plate was monitored for AMC hydrolysis on the Envision fluorescent microplate reader.

[1] = tested on: Leishmania major promastigotes; assay: Leishmaniasis assay; assay type: cell-based; conditions: read-out: IC50 against Leishmania major promastigotes
Procedure: Five thousand Leishmania major promastigotes were plated per well in a 384-well microtiter plate in a 20 μL volume of promastigote growth medium. Promastigotes were treated with a concentration range from 0 μM to 50 μM of Compound No. 1 for 44 hrs. Five pL Cell-Titer-Blue™ were added per well and incubated for 4 hrs. Relative fluorescence units (A560/A590) were captured on a SpectraMax M5 microtiter plate reader. DMSO concentrations were held constant at 0.5%.

Human liver cathepsin B = molecular target: T2, Human liver cathepsin B (Homo sapiens, UniProt P07858); assay: Cathepsin B assay, IC50 determination; assay type: biochemical
T2 construct: Human liver cathepsin B (Calbiochem 219362, 65 ng/mL); purchased Calbiochem 219362; host or cells: human liver
In short: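 Spleen cathepsin S (40 ng/mL) with 15 microM Z-Phe-Arg-AMC and liver cathepsin B (65 ng/mL) with 15 microM Z-Arg-Arg-AMC, in 20 mM sodium acetate, 1 mM EDTA, 5 mM cysteine, pH 5.5. AMC fluorescence release monitored; IC50 measured in triplicate.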

human liver cathepsin L = molecular target: T3, human liver cathepsin L (Homo sapiens, UniProt P07711); assay: Cathepsin L assay, IC50 determination; assay type: biochemical
T3 construct: 8.7 ng/mL human liver cathepsin L (Calbiochem 219402); purchased Calbiochem 219402; host or cells: human liver
T3 sequence (P07711 114-288 limits assumed): as the sequence (P07711 114-288 limits assumed) above
T3 sequence (P07711 292-333 limits assumed): as the sequence (P07711 292-333 limits assumed) above
In short: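 Enzyme (300 pM) pre-activated for 30 min in 20 mM sodium acetate, 1 mM EDTA, 5 mM cysteine, pH 5.5, then incubated 1 h at room temperature with 1 microM Z-Phe-Arg-AMC and compound. Fluorescent read-out on a microplate reader; IC50 in triplicate.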

`CCc1ccccc1NC(=O)CSC(=O)NNC(=O)[C@H](Cc1c[nH]c2ccccc12)NC(=O)OC(C)(C)C` [Compound No. 1] was tested. Which IC50 (human cathepsin K) did it give?
The IC50 was 17.6 ± 1.04 µM.

What about the “Selectivity Index @ 10 min” value (human cathepsin K; Cathepsin K vs cathepsin L, 10 min) of the same compound?
Its value is 114.

And the “Selectivity Index @ 30 min” value (human cathepsin K; Cathepsin K vs cathepsin L, 30 min)?
Its value is 113.

And the “Selectivity Index @ 60 min” value (human cathepsin K; Cathepsin K vs cathepsin L, 60 min)?
The value was 151.

What about the “Selectivity Index @ 90 min” value (human cathepsin K; Cathepsin K vs cathepsin L, 90 min) of the same compound?
Its value is 137.

And the “Selectivity Index” value (human cathepsin K; Cathepsin K vs cathepsin L, over 10-90 min)?
Its value is 113-151.

And the IC50 (human cathepsin K; Cathepsin K, no preincubation, 30 min, read-out: IC50 @ 30 min)?
Its IC50 is 8.46 ± 0.366 µM.

What about the IC50 (human cathepsin K; Cathepsin K, no preincubation, 60 min, read-out: IC50 @ 60 min) of the same compound?
Its IC50 is 8.44 ± 0.14 µM.

And the IC50 (human cathepsin K; Cathepsin K, no preincubation, 90 min, read-out: IC50 @ 90 min)?
The IC50 was 6.857 ± 0.063 µM.

What about the IC50 (human cathepsin L; IC50 against human cathepsin L after 1 hour preincubation, preincubation with enzyme 1 h prior to substrate addition) of the same compound?
The IC50 was 0.0075 ± 0.001 µM.

What about the IC50 (human cathepsin L; IC50 against human cathepsin L after 2 hours preincubation, preincubation with enzyme 2 h) of the same compound?
The IC50 was 0.0042 ± 0.0006 µM.

What about the IC50 (human cathepsin L; preincubation with enzyme 4 h, read-out: IC50 against human cathepsin L after 4 hours preincubation) of the same compound?
The IC50 was 0.001 ± 0.0005 µM.

What about the IC50 [1] of the same compound?
Its IC50 is 12.5 ± 0.6 µM.

What about the “Selectivity Index @ 10 min” value (Human liver cathepsin B; Cathepsin B vs cathepsin L, 10 min) of the same compound?
The value was 48.

And the “Selectivity Index @ 30 min” value (Human liver cathepsin B; Cathepsin B vs cathepsin L, 30 min)?
Its value is 40.

And the “Selectivity Index @ 60 min” value (Human liver cathepsin B; Cathepsin B vs cathepsin L, 60 min)?
Its value is 45.

And the “Selectivity Index @ 90 min” value (Human liver cathepsin B; Cathepsin B vs cathepsin L, 90 min)?
The value was 50.

And the “Selectivity Index” value (Human liver cathepsin B; Cathepsin B vs cathepsin L, over 10-90 min)?
Its value is 40-50.

And the IC50 (Human liver cathepsin B; Cathepsin B, no preincubation, 30 min, read-out: IC50 @ 30 min)?
Its IC50 is 2.98 ± 0.295 µM.

And the IC50 (Human liver cathepsin B; Cathepsin B, no preincubation, 60 min, read-out: IC50 @ 60 min)?
Its IC50 is 2.53 ± 0.073 µM.

And the IC50 (Human liver cathepsin B; Cathepsin B, no preincubation, 90 min, read-out: IC50 @ 90 min)?
The IC50 was 2.51 ± 0.139 µM.

And the IC50 (Human liver cathepsin B; IC50 @ 10 min, Cathepsin B, human liver, no preincubation, 10 min)?
Its IC50 is 7.49 ± 0.693 µM.

And the IC50 (Human liver cathepsin B; Table 1, read-out: IC50 Cat B)?
Its IC50 is 4.45 µM.

And the “Selectivity Index @ 10 min” value (human liver cathepsin L; Cathepsin L, human liver, 10 min)?
The value was 1.

And the IC50 (human liver cathepsin L; Cathepsin L, human liver, no preincubation, 30 min, read-out: IC50 @ 30 min)?
The IC50 was 0.075 ± 0.005 µM.

And the IC50 (human liver cathepsin L; Cathepsin L, human liver, no preincubation, 60 min, read-out: IC50 @ 60 min)?
The IC50 was 0.056 ± 0.004 µM.

What about the IC50 (human liver cathepsin L; Cathepsin L, human liver, no preincubation, 90 min, read-out: IC50 @ 90 min) of the same compound?
The IC50 was 0.05 ± 0.003 µM.

And the “Selectivity Index @ 30 min” value (human liver cathepsin L; Cathepsin L, 30 min)?
The value was 1.

And the “Selectivity Index @ 60 min” value (human liver cathepsin L; Cathepsin L, 60 min)?
The value was 1.

And the “Selectivity Index @ 90 min” value (human liver cathepsin L; Cathepsin L, 90 min)?
Its value is 1.

And the “Selectivity Index” value (human liver cathepsin L; Cathepsin L, IC50 protease / IC50 cathepsin L, over 10-90 min)?
The value was 1.

What about the IC50 (human liver cathepsin L; IC50 @ 10 min, Cathepsin L, human liver, no preincubation, 10 min) of the same compound?
The IC50 was 0.155 ± 0.012 µM.

And the IC50 (human liver cathepsin L; Table 1, read-out: IC50 Cat L)?
Its IC50 is 0.056 µM.

What about the IC50 (human liver cathepsin L; Table 17, n = 3, C, S or O at the sulfur position, read-out: Cathepsin L inhibitory activity IC50) of the same compound?
Its IC50 is 0.056 ± 0.004 µM.

And the IC50 (human liver cathepsin L; no preincubation of enzyme and inhibitor, read-out: IC50 against cathepsin L (no preincubation))?
Its IC50 is 0.056 µM.
